Measurements reported in patent EP0558673B1, “RETROVIRAL PROTEASE INHIBITORS” (MONSANTO COMPANY, priority 1990, dated 1992).

Columns and labels:
HIV protease = target: T1, HIV protease (Human immunodeficiency virus type 1 group M subtype B, UniProt P04585); experiment: HIV protease enzyme assay (fluorescence, substrate 2-aminobenzoyl-Ile-Nle-Phe(p-NO₂)-Gln-ArgNH₂); type: biochemical; conditions: Table 16; enzyme 12.3 nanomolar, substrate 80 µM, pH 6.4, ambient temperature; read-out: IC₅₀
T1 construct: final enzyme concentration of 12.3 nanomolar, based on a molecular weight of 10,780
Description: The compounds of the present invention are effective HIV protease inhibitors. Utilizing an enzyme assay as described below, the compounds set forth in the examples herein disclosed inhibited the HIV enzyme. The preferred compounds of the present invention and their calculated IC₅₀ (inhibiting concentration 50%, i.e., the concentration at which the inhibitor compound reduces enzyme activity by 50%) values are shown in Table 16. The enzyme method is described below. The substrate is 2-aminobenzoyl-Ile-Nle-Phe(p-NO₂)-Gln-ArgNH₂. The positive control is MVT-101 (Miller, M. et al, Science, 246, 1149 (1989)] The assay conditions are as follows: Assay buffer: 20 mM sodium phosphate, pH 6.4 20% glycerol 1 mM EDTA 1 mM DTT 0.1% CHAPS
The above described substrate is dissolved in DMSO, then diluted 10 fold in assay buffer. Final substrate concentration in the assay is 80 µM.
HIV protease is diluted in the assay buffer to a final enzyme concentration of 12.3 nanomolar, based on a molecular weight of 10,780.
The final concentration of DMSO is 14% and the final concentration of glycerol is 18%. The test compound is dissolved in DMSO and diluted in DMSO to 10x the test concentration; 10µl of the enzyme preparation is added, the materials mixed and then the mixture is incubated at ambient temperature for 15 minutes. The enzyme reaction is initiated by the addition of 40µl of substrate. The increase in fluorescence is monitored at 4 time points (0, 8, 16 and 24 minutes) at ambient temperature. Each assay is carried out in duplicate wells.

HIV-1 = experiment: CEM cell assay: HIV inhibition assay of acutely infected cells (tetrazolium/MTT colorimetric); type: cell-based; conditions: Human immunodeficiency virus 1, CCRF-CEM, 168 h; Table 17; CEM cells acutely infected with HIV-1, 7 days, MTT readout; read-out: EC₅₀
Procedure: The effectiveness of the compounds listed in Table 16 were determined in the above-described enzyme assay and in a CEM cell assay.
Methods 20, 309-321 (1988).

SMILES | IC50 (HIV protease) | EC50 (HIV-1)
CC(C)CCN(C[C@@H](O)[C@H](Cc1ccccc1)NC(=O)[C@H](CC(N)=O)NS(=O)(=O)CCc1ccccc1)C(=O)NC(C)(C)C (relative stereo) [Compound 3, 3-Thia-4,7,11-triazadodecan-12-amide, N-(1,1-dimethylethyl)-5-(2-amino-2-oxo-ethyl)-9-hydroxy-11-(3-methylbutyl)-6-oxo-8-(phenylmethyl)-1-phenyl-, 2,2-dioxide-,[5S-,(5R*,8R*,9S*)]] | 24 nM | –
CC(C)CCN(C[C@@H](O)[C@H](Cc1ccccc1)NC(=O)[C@@H](NS(=O)(=O)CCc1ccccc1)C(C)(C)C)C(=O)NC(C)(C)C (relative stereo) [Compound 1, 3-Thia-4,7,11-triazadodecan-12-amide, N,5-bis(1,1-dimethylethyl)-9-hydroxy-11-(3-methylbutyl)-6-oxo-8-(phenylmethyl)-1-phenyl-, 2,2-dioxide-,5S-,(5R*,8R*,9S*)]] | 22 nM | 510 nM
CC(C)CCN(C[C@@H](O)[C@H](Cc1ccccc1)NC(=O)[C@@H](NS(=O)(=O)CCc1ccccc1)C(C)C)C(=O)NC(C)(C)C (relative stereo) [Compound 2, 3-Thia-4,7,11-triazadodecan-12-amide, N-(1,1-dimethylethyl)-5-(1-methylethyl)-9-hydroxy-11-(3-methylbutyl)-6-oxo-8-(phenylmethyl)-1-phenyl-, 2,2-dioxide-,[5S-,(5R*,8R*,9S*)]] | 29 nM | 440 nM
